# Key:
# CRTH2 [1] = biological target: T1, CRTH2 (Homo sapiens, UniProt Q9Y5Y4); assay: Cellular Dielectric Spectroscopy (CHO-CRTH2 cells); format: cell-based; parameters: expressed in transfected cells; host or cells: CHO-CRTH2 cells; conditions: antagonist mode, fixed concentration of PGD2 (EC80)
# T1 sequence (Q9Y5Y4 1-395): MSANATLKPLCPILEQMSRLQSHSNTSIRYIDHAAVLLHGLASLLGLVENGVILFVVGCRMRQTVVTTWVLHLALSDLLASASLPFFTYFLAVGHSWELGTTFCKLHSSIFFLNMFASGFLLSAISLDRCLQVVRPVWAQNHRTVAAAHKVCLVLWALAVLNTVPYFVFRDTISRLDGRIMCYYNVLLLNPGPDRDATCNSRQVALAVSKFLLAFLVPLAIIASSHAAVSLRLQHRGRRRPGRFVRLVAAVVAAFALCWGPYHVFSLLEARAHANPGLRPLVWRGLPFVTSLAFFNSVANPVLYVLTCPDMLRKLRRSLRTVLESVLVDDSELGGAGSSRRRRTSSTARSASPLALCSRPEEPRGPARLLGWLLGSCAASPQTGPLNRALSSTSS
# Summary of the method: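 Label-free cellular dielectric spectroscopy measured impedance changes (dZ) in CHO-CRTH2 cells. The cells were grown in HAM's F12 with 10% foetal calf serum and 400 μg/ml Geneticin, plated at 100000 cells/well in 96W electrode microplates, and kept 24 hours at 37° C. in 5% CO2. They were then washed twice with 135 μl of HBSS/10 mM HEPES pH 7.4/1% DMSO buffer. Signal was the max-min amplitude, with basal and maximum activity defined without and with PGD2 (EC80).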
# CRTH2 [2] = biological target: T1, CRTH2; assay: [35S]GTPγS binding assay (CHO-CRTH2 cell membranes); format: biochemical; parameters: expressed in transfected cells; host or cells: CHO-CRTH2 cells; conditions: for IC50: antagonist mode, fixed concentration of PGD2 (EC80); for Emax: inverse agonists, 100% of Emax = activity with 1 μM PGD2
# Procedure: Adherent CHO cells expressing hCRTH2 (Euroscreen, Belgium) were cultured in 225 cm^2 cell culture flasks (Corning, USA) in 30 ml of medium. After two rinses of phosphate buffered saline (PBS), cells were harvested in 10 ml of PBS containing 1 mM EDTA, centrifuged at 500×g for 5 min at 4° C. and frozen at −80° C. The pellet was re-suspended in 50 mM Tris-HCl, pH 7.4, 2 mM EDTA, 250 mM Sucrose, containing protease inhibitor cocktail tablets, (Complete EDTA-free, Roche, Germany) and incubated 30 min at 4° C. Cells were disrupted by nitrogen cavitation (Parr Instruments, USA) at 4° C. (800 p.s.i. for 30 min), and centrifuged at 500×g for 10 min at 4° C. Pellet containing nuclei and cellular debris was discarded and supernatant was centrifuged 60 min at 4° C. at 45000×g. Membrane pellet was re-suspended in storage buffer (10 mM HEPES/KOH pH 7.4, 1 mM EDTA, 250 mM sucrose, protease inhibitor cocktail tablets) using Dounce homogenization and frozen in liquid nitrogen, and stored at −80° C.
# The [^35S]GTPγS assay measures the increase in guanine nucleotide exchange at G-proteins in cell membranes, resulting from agonist (PGD2) binding to CRTH2. This process can be monitored in vitro by incubating cell membranes containing G-proteins and CRTH2 with GDP and [^35S]GTPγS, a radiolabeled, hydrolysis-resistant analogue of GTP (see, Harrison et al., Life Sciences 74, 489-508, 2003). The addition of a Compounds of Formula (I) results in binding to CRTH2 and thus in an inhibition of agonist binding, which can be monitored as inhibition of the stimulation of GTP/GDP exchange.
# Briefly, Compounds of Formula (I) are incubated in 96-well scintillating white polystyrene plates (Perkin Elmer, USA) in a final volume of 200 μl containing 20 mM HEPES/KOH pH 7.4, 3 mM MgCl2, 10 μg/ml Saponin, 5 μM GDP, 75 mM NaCl and 2% of dimethylsulphoxide (DMSO). Reaction is triggered by the addition of 5-10 μg of CHO-CRTH2 cell membranes and 0.15 nM [^35S]GTPγS. After 60 min incubation at 30° C., reaction is stopped by centrifugation at 700×g, at 4° C. for 10 minutes and supernatant is removed. The radioactivity coming from the [^35S]GTPγS bound on centrifuged cell membranes is recorded using a 1450 Micro-beta scintillation counter. For IC50 determination, increasing concentrations of compounds are incubated in presence of a fixed concentration of PGD2 (EC80). For EC50 measurements, compounds are incubated without addition of PGD2. Basal [^35S]GTPγS activity is determined without addition of any ligands or compounds. 100% [^35S]GTPγS activity is measured by the addition of 1 μM of PGD2.
Compound,IC50 (CRTH2 [1]) [nM],IC50 (CRTH2 [2]) [nM],Emax (CRTH2 [2]) [%]
"CCCS(=O)(=O)c1cccc(C#Cc2cc(Cl)ccc2OCC(=O)O)c1 [Example 17, (4-chloro-2-{[3-(propylsulfonyl)phenyl]ethynyl}phenoxy)acetic acid]",22,,
"CN(C)S(=O)(=O)c1cncc(C#Cc2cc(Cl)ccc2OCC(=O)O)c1 [Example 35, [4-chloro-2-({5-[(dimethylamino)sulfonyl]pyridin-3-yl}ethynyl)phenoxy]acetic acid]",23,126,
"CCCS(=O)(=O)c1ccc(C)c(C#Cc2cc(Cl)ccc2OCC(=O)O)c1 [Example 38, (4-chloro-2-{[2-methyl-5-(propylsulfonyl)phenyl]ethynyl}phenoxy)acetic acid]",32,6,
"CCCS(=O)(=O)c1ccc(Cl)c(C#Cc2cc(Cl)ccc2OCC(=O)O)c1 [Example 101, (4-chloro-2-{[2-chloro-5-(propylsulfonyl)phenyl]ethynyl}phenoxy)acetic acid]",38,,
"O=C(O)COc1ccc(Cl)cc1C#Cc1ccc2c(c1)S(=O)(=O)c1ccccc1-2 [Example 154, {4-chloro-2-[(5,5-dioxidodibenzo[b,d]thien-3-yl)ethynyl]phenoxy}acetic acid]",,,-17

# Next, values leading:
IC50 (CRTH2 [1]) [nM],IC50 (CRTH2 [2]) [nM],Emax (CRTH2 [2]) [%],Compound
29,,,"CCCS(=O)(=O)c1ccc(F)c(C#Cc2cc(Cl)ccc2OCC(=O)O)c1 [Example 89, (4-chloro-2-{[2-fluoro-5-(propylsulfonyl)phenyl]ethynyl}phenoxy)acetic acid]"
16,4,,"CC(C)S(=O)(=O)c1ccc(F)c(C#Cc2cc(Cl)ccc2OCC(=O)O)c1 [Example 102, (4-chloro-2-{[2-fluoro-5-(isopropylsulfonyl)phenyl]ethynyl}phenoxy)acetic acid]"
44,,,"CC(C)S(=O)(=O)c1ccc(Cl)c(C#Cc2cc(Cl)ccc2OCC(=O)O)c1 [Example 103, (4-chloro-2-{[2-chloro-5-(isopropylsulfonyl)phenyl]ethynyl}phenoxy)acetic acid]"
23,,-13,"CN(C)S(=O)(=O)c1ccc(F)c(C#Cc2cc(Cl)ccc2OCC(=O)O)c1 [Example 107, [4-chloro-2-({5-[(dimethylamino)sulfonyl]-2-fluorophenyl}ethynyl)phenoxy]acetic acid]"

# — patent US8273769B2, “Phenoxy acetic acid derivatives” (Merck Serono SA, priority 2009, dated 2012)
